In US8455461B2, “Compositions containing a synergic mixture of polyols and xyloglucanes as phytosanitary and bio-fertilising products” (Elicityl, priority 2007, dated 2013):

Assays:
[1] = system: Chardonnay vine plants; assay: Frost-resistance of young vine plants, Chardonnay (foliar spraying, cold stress, foliar necroses); format: in vivo
Experimental: (§1) Plants originating from different vine varieties: the Chardonnay and Cabernet-Sauvignon varieties are used. Each sample, composed of 5 to 21 plants, is treated by foliar spraying at different vegetative stages on the BBCH scale with a mixture containing the xyloglucan elicitor, heptasaccharide XFGol or heptamaloxyloglucan, in solution at variable doses combined or not combined with sorbitol; the spraying of 2.5 ml of solution per plant is carried out using a sprayer (deviation of +/−1%). After use of the elicitor, the plants were exposed to cold stress of variable intensity and duration. After exposure to the cold, the plants are placed in a climatic chamber at 20° C. with a 12-hour day/night alternation. The appearance of the leaves is observed 24 hours and 72 hours after removal from the cold. The effects of the cold are evaluated by observing the foliar necroses induced by frost and the plants are kept for several months in order to monitor their subsequent development. The results are expressed by the protection index c (%)=100−P; P, being the proportion of foliar necroses. The results are also expressed in gain: [formula]

[2] = system: Cabernet-Sauvignon vine plants; assay: Frost-resistance of young vine plants, Cabernet-Sauvignon (foliar spraying, cold stress, foliar necroses); format: in vivo
Experimental: as §1

Structure (SMILES): OC[C@@H](O)[C@@H](O)[C@H](O)[C@@H](O)CO [sorbitol]
- effect of sorbitol on frost protection ([1]; 0.1% sorbitol, when the elicitor itself has no effect): without effect
- effect of sorbitol on frost protection ([2]; Cabernet-Sauvignon, 0.1% sorbitol, when the elicitor itself has no effect): without effect

Structure (SMILES): CC1OC(OC2C(OC3C(OCC4OC(OC(C(O)CO)C(O)C(O)CO)C(O)C(O)C4OC4OC(COC5OCC(O)C(O)C5O)C(O)C(O)C4O)OCC(O)C3O)OC(CO)C(O)C2O)C(O)C(O)C1O (stereo not drawn) [Elicitor, heptamaloxyloglucan]
- If % average (protection index) ([1]; all physiological stages combined, 5 nM elicitor): 40%
- Gain % ([1]; all physiological stages combined, 5 nM elicitor, vs dry control): 0%
- Gain % ([2]; Cabernet-Sauvignon second series, 500 nM elicitor, vs dry control): 200%
- If % average (protection index) ([2]; Cabernet-Sauvignon second series, all physiological stages combined, 500 nM elicitor): 60%
